Test results from patent publication US20190112578A1, “Derivation and Self-Renewal of Multipotent Cells and Uses Thereof” (IsletOne AB, priority 2016, published 2019).

Experiments:
Assay type in all cases: cell-based
multipotent cells (MSCs) = assay: Growth curves of multipotent cells (MSCs); conditions: LN-521 under hypoxia versus standard conditions (plastic under normoxia)
Description: Cells can be grown under hypoxic conditions using a variety of methods. Normally, hypoxic conditions for cell culturing are defined as culturing of cells in an atmosphere containing 5% or less of oxygen.

[1] = system: embryonic rat cardiac mesenchymal stem cells and rat bone marrow; assay: Derivation of Isl1+ cells from rat mesenchymal stem cells on laminins in Wnt-medium (Isl1 immunostaining); conditions: on LN-521 in combination with hypoxia, two weeks in culture (5 passages)
Description: In order to further improve feeder free culturing systems where the origin and expansion of multipotent cells could be followed, the inventors synthesized a plasmid construct comprising parts of the Isl1-promotor region linked to the fluorescent marker green fluorescent protein (GFP). The plasmid was introduced into the cells by means of electroporation. Mesenchymal cells (i) derived from rat embryonic hearts, (ii) obtained from rat bone marrow, (iii) obtained from the bone marrow of young healthy donors, (iv) obtained from human cord blood and other types of perinatal tissue, (v) isolated from human amniotic sources, (v) isolated from human adult cardiac tissue were labeled with the Isl1 gene construct concomitant to the addition of Wnt-containing medium (100 ng/ml Wnt-3a and […] BIO). […] In culture the cells grew to confluency and were passaged every other day. At each passage, cells were analysed immunohistochemically for the expression of Isl1.
For each experiment 10 pregnant sprague-dawley rats (gestational day, GD, 13 to 14) were used. The rats were euthanized in a CO2 chamber after which the whole embryos (approximately 10 embryos/rat) were removed through a low midline abdominal incision. From each embryo the heart was removed under microscope, minced into small pieces and rinsed repetitively with Hank's buffered salt solution (HBSS) (GibcoBRL, NY, USA). […]

Isl1 cells = assay: qRT-PCR of multipotency and differentiation markers in cells grown under various conditions; conditions: LN-521 under hypoxia versus LN-521 normoxia, plastic hypoxia

## LN-521: laminin heterotrimeric glycoprotein comprising an α5 chain, coated on cell culture plastic
Multipotent cells (MSCs)
  proliferation (growth curve): significantly faster
[1]
  cells expressing Isl1: 80±15%
Isl1 cells
  Isl1, KDR and Nkx_2_5 mRNA transcripts: significantly higher
  Troponin T2 transcripts: lower
